According to the NIST ThermoML archive (doi:10.1016/j.fluid.2004.11.006):
Numbers after ± are expanded uncertainties.

What was measured:
[1] = Solid-liquid equilibrium temperature; details: 101.3 kPa
[2] = Molar enthalpy of transition or fusion; details: Crystal; DSC

| Solid-liquid equilibrium temperature ([1]; Crystal) [K] | Solid-liquid equilibrium temperature ([1]; Crystal 1) [K] | Molar enthalpy of transition or fusion [2] [kcal/mol] | SMILES |
| --- | --- | --- | --- |
| 285.08 ± 0.4 | – | – | C1COCCO1 [1,4-dioxane] |
| – | 311.76 ± 0.8 | – | C1COCCOCCOCCOCCOCCO1 [1,4,7,10,13,16-hexaoxacyclooctadecane] |
| 249.68 ± 0.4 | – | 2.64 ± 0.0908 | CN1CCCC1=O [N-methylpyrrolidone] |
